We go through 22 molecules from patent US9546157B2, “Asymmetric piperidinyl-substituted ureas as medicines” (Helsinn Healthcare SA, priority 2014, dated 2017).

In series [1] the target is T1, GHSR1a (Homo sapiens, UniProt Q92847).
T1 construct: expressed in transfected cells; host or cells: HEK293
Briefly: Calcium FLIPR assay, GHSR-1a antagonism (reduction of ghrelin response). The class given is cell-based. Conditions: HEK293/GHSR1a cells, ghrelin 10 nM. An outline of the steps: (§1)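 Antagonist potency reflects lowering of the 10 nM ghrelin calcium signal in HEK293/GHSR1a cells, with compound and ghrelin given at t=20 sec. Agonism was scored from the 2-minute fluorescence response to compound alone.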

The target in series [2] is T1, GHSR1a. Briefly: Calcium FLIPR assay, GHSR-1a agonism. The class given is cell-based. Details: Emax: unit not given here. Conditions: HEK293/GHSR1a cells. An outline of the steps: as §1
A short description of series [3]: Metabolic Stability (H = Human). The class given is in vitro ADME.
Series [4] is described as follows: Metabolic Stability (M = Mouse). The class given is in vitro ADME.

A value given as a limit tells only on which side of the number the result lay.

T1 sequence (Q92847 whole entry): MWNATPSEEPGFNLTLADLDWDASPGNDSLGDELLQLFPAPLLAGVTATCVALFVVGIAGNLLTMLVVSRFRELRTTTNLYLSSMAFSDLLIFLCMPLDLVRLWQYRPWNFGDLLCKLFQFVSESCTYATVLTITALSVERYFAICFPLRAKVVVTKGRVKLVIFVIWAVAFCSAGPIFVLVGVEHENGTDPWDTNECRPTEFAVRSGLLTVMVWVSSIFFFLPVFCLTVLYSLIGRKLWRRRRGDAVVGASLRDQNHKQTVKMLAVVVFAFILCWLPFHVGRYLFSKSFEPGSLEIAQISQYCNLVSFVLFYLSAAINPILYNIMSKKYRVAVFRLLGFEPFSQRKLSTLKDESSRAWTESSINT

For `CN1CCC(N(C)C(=O)NC(CC2CC2)c2ccc(-c3cncc(N)c3)c(Cl)c2Cl)CC1` (stereo not shown) [Compound H0721, 3-(1-(4-(5-aminopyridin-3-yl)-2,3-dichlorophenyl)-2-cyclopropylethyl)-1-methyl-1-(1-methylpiperidin-4-yl)urea], on GHSR1a [1], the IC50 (usually the concentration that inhibits the measured activity by half) amounted to 20 nM. In addition, the 50% effective concentration (EC50) (commonly the concentration giving half of the maximal effect) on GHSR1a [2] was over 30000 nM. In series [3], the “Metabolic Stability H” value is “Medium”. The “Metabolic Stability M” value in series [4] was “High”.

As to `CC(NC(=O)N(C)C1CCN(C)CC1)c1ccc(-c2cncc(C(F)F)c2)c(Cl)c1Cl` (stereo not shown) [Compound H0637, 3-(1-(2,3-dichloro-4-(5-(difluoromethyl)pyridin-3-yl)phenyl)ethyl)-1-methyl-1-(1-methylpiperidin-4-yl)urea], on GHSR1a [1], the half-maximal inhibitory concentration (IC50) turned out to be 85 nM. For the same molecule, the EC50 at GHSR1a [2] was over 30000 nM. The “Metabolic Stability H” value in series [3] is reported as “Medium H Medium M”. The “Metabolic Stability M” value in series [4] is “Medium H Medium M”.

For `CC(NC(=O)N(C)C1CCN(C)CC1)c1ccc(-c2cccc(C#N)c2)c(Cl)c1Cl` (stereo not shown) [Compound H0610, 3-(1-(2,3-dichloro-3′-cyano-[1,1′-biphenyl]-4-yl)ethyl)-1-methyl-1-(1-methylpiperidin-4-yl)urea], at GHSR1a [1], the IC50 amounted to 101 nM. Further, the EC50 at GHSR1a [2] is over 30000 nM. For the same molecule, in series [3], the “Metabolic Stability H” value was “Medium H Medium M”. Also, the “Metabolic Stability M” value in series [4] was “Medium H Medium M”.

Turning to `CC(O)c1ccc(-c2ccc(C(C)NC(=O)N(C)C3CCN(C)CC3)c(Cl)c2Cl)s1` (stereo not shown) [Compound H0656, 3-(1-(2,3-dichloro-4-(5-(1-hydroxyethyl)thiophen-2-yl)phenyl)ethyl)-1-methyl-1-(1-methylpiperidin-4-yl)urea], on GHSR1a [1], the 50% inhibitory concentration (IC50) came to 7 nM. In addition, on GHSR1a [2], the EC50 was found to be 15 nM and the Emax is on record as 1350. Besides, in series [3], the “Metabolic Stability H” value is reported as “Medium H Medium M”. Further, the “Metabolic Stability M” value in series [4] was “Medium H Medium M”.

Regarding `CC(NC(=O)N(C)C1CCN(C)CC1)c1ccc(-c2cnc3[nH]ccc3c2)c(Cl)c1Cl` (stereo not shown) [Compound H0514], on GHSR1a [1], the IC50 came to 16 nM. Further, the EC50 at GHSR1a [2] was determined as 38 nM. The “Metabolic Stability H” value in series [3] is “Medium H Medium M”. Also, the “Metabolic Stability M” value in series [4] is “Medium H Medium M”.

Turning to `Cc1ccc(-c2ccc(C(C)NC(=O)N(C)C3CCN(C)CC3)c(Cl)c2Cl)o1` (stereo not shown) [Compound H0665, 3-(1-(2,3-dichloro-4-(5-methylfuran-2-yl)phenyl)ethyl)-1-methyl-1-(1-methylpiperidin-4-yl)urea], the IC50 at GHSR1a [1] came to 4 nM. In addition, the EC50 on GHSR1a [2] turned out to be 8 nM. Further, the “Metabolic Stability H” value in series [3] is listed as “High”. For the same molecule, the “Metabolic Stability M” value in series [4] was “Medium”.

As for `CC(NC(=O)N(C)C1CCN(C)CC1)c1ccc(-n2ccnn2)c(Cl)c1Cl` (stereo not shown) [Compound H0565, 3-(1-(2,3-dichloro-4-(1H-1,2,3-triazol-1-yl)phenyl)ethyl)-1-methyl-1-(1-methylpiperidin-4-yl)urea], the IC50 on GHSR1a [1] was determined as 28 nM. Also, the half-maximal effective concentration (EC50) at GHSR1a [2] is 30 nM. Besides, the “Metabolic Stability H” value in series [3] is “High H High M”. In addition, in series [4], the “Metabolic Stability M” value is on record as “High H High M”.

With `CC(NC(=O)N(C)C1CCN(C)CC1)c1ccc(-c2ccc(C(F)F)s2)c(Cl)c1Cl` (stereo not shown) [Compound H0654, 3-(1-(2,3-dichloro-4-(5-(difluoromethyl)thiophen-2-yl)phenyl)ethyl)-1-methyl-1-(1-methylpiperidin-4-yl)urea], the IC50 at GHSR1a [1] was found to be 6 nM. Besides, on GHSR1a [2], the EC50 is 10 nM and the Emax came out at 2200. The “Metabolic Stability H” value in series [3] is on record as “High”. In series [4], the “Metabolic Stability M” value is given as “Medium”.

For `CC(NC(=O)N(C)C1CCN(C)CC1)c1ccc(I)c(Cl)c1Cl` (stereo not shown) [Compound H0519, 3-(1-(2,3-dichloro-4-iodophenyl)ethyl)-1-methyl-1-(1-methylpiperidin-4-yl)urea], at GHSR1a [1], the IC50 was 3 nM. For the same molecule, the concentration giving a half-maximal response (EC50) at GHSR1a [2] was 6 nM. For the same molecule, the “Metabolic Stability H” value in series [3] was “Medium H Medium M”. For the same molecule, in series [4], the “Metabolic Stability M” value is “Medium H Medium M”.

Take `COC(=O)c1ccc(CN(C(=O)NC(C)c2ccc(-c3cn[nH]c3)c(Cl)c2Cl)C2CCN(C)CC2)cc1` (stereo not shown) [Compound H0537, methyl 4-((3-(1-(2,3-dichloro-4-(1H-pyrazol-4-yl)phenyl)ethyl)-1-(1-methylpiperidin-4-yl)ureido)methyl)benzoate]: the IC50 at GHSR1a [1] amounted to 13 nM. Besides, the EC50 on GHSR1a [2] is over 30000 nM. In addition, the “Metabolic Stability H” value in series [3] is “Poor H Poor M”. In series [4], the “Metabolic Stability M” value is “Poor H Poor M”.

Regarding `CC(NC(=O)N(C)C1CCN(C)CC1)c1ccc(-c2ccc(C(N)=O)cc2)c(Cl)c1Cl` (stereo not shown) [Compound H0615, 2′,3′-dichloro-4′-(1-(3-methyl-3-(1-methylpiperidin-4-yl)ureido)ethyl)-[1,1′-biphenyl]-4-carboxamide], on GHSR1a [1], the IC50 is 107 nM. Further, the EC50 on GHSR1a [2] is over 30000 nM. The “Metabolic Stability H” value in series [3] is listed as “High”. Moreover, in series [4], the “Metabolic Stability M” value was “Medium”.

Turning to `CC(NC(=O)N(C)C1CCN(C)CC1)c1ccc(-c2cncc(CO)c2)c(Cl)c1Cl` (stereo not shown) [Compound H0636, 3-(1-(2,3-dichloro-4-(5-(hydroxymethyl)pyridin-3-yl)phenyl)ethyl)-1-methyl-1-(1-methylpiperidin-4-yl)urea], the IC50 on GHSR1a [1] stood at 90 nM. At GHSR1a [2], the EC50 was over 30000 nM. Further, the “Metabolic Stability H” value in series [3] is “High”. Also, the “Metabolic Stability M” value in series [4] is “Medium”.

For `CC(NC(=O)N(C)C1CCN(C)CC1)c1ccc(-c2cccs2)c(Cl)c1F` (stereo not shown) [Compound H0582, 3-(1-(34-chloro-2-fluoro-4-(thiophen-2-yl)phenyl)ethyl)-1-methyl-1-(1-methylpiperidin-4-yl)urea], at GHSR1a [1], the half-maximal inhibitory concentration (IC50) came out at 15 nM. On GHSR1a [2], the EC50 is 20 nM and the Emax is listed as 2069. In addition, the “Metabolic Stability H” value in series [3] is listed as “Medium H Medium M”. In series [4], the “Metabolic Stability M” value is listed as “Medium H Medium M”.

Turning to `C[C@H](NC(=O)N(C)[C@@H]1CCN(C)CC1(C)C)c1ccc(-c2cnccn2)c(Cl)c1Cl` [Compound H0890, 3-((S)-1-(2,3-dichloro-4-(pyrazin-2-yl)phenyl)ethyl)-1-methyl-1-((R)-1,3,3-trimethylpiperidin-4-yl)urea], the IC50 at GHSR1a [1] amounted to 1.6 nM. In addition, at GHSR1a [2], the EC50 is over 30000 nM. The “Metabolic Stability H” value in series [3] is listed as “High H High M”. The “Metabolic Stability M” value in series [4] was “High H High M”.

As to `CC(NC(=O)N(C)C1CCN(C)C1)c1ccc(-c2ccsc2)c(Cl)c1Cl` (stereo not shown) [Compound H0531, 3-(1-(2,3-dichloro-4-(thiophen-3-yl)phenyl)ethyl)-1-methyl-1-(1-methylpyrrolidin-3-yl)urea], the IC50 at GHSR1a [1] worked out at 4 nM. The EC50 on GHSR1a [2] amounted to 5 nM. For the same molecule, in series [3], the “Metabolic Stability H” value is on record as “Medium”. Further, in series [4], the “Metabolic Stability M” value is listed as “Poor”.

Consider `CCN(C(=O)NC(c1ccc(-c2cnccn2)c(Cl)c1Cl)C(F)(F)F)C1CCN(C)CC1` (stereo not shown) [Compound H0909, 3-(1-(2,3-dichloro-4-(pyrazin-2-yl)phenyl)-2,2,2-trifluoroethyl)-1-ethyl-1-(1-methylpiperidin-4-yl)urea], for which, on GHSR1a [1], the IC50 came to 12 nM. Besides, the concentration for a half-maximal effect (EC50) on GHSR1a [2] was over 30000 nM. In addition, in series [3], the “Metabolic Stability H” value is recorded as “Medium”. Moreover, in series [4], the “Metabolic Stability M” value is given as “High”.

As to `CC(NC(=O)N(C)C1CCN(C)CC1)c1ccc(-c2cnc3[nH]ncc3c2)c(Cl)c1Cl` (stereo not shown) [Compound H0623, 3-(1-(2,3-dichloro-4-(1H-pyrazolo[3,4-b]pyridin-5-yl)phenyl)ethyl)-1-methyl-1-(1-methylpiperidin-4-yl)urea], the IC50 at GHSR1a [1] turned out to be 71 nM. The EC50 at GHSR1a [2] was over 30000 nM. In series [3], the “Metabolic Stability H” value is reported as “Medium”. The “Metabolic Stability M” value in series [4] is on record as “Poor”.

Turning to `CC(NC(=O)N(C)C1CCN(C)CC1)c1ccc(-c2cocn2)c(Cl)c1Cl` (stereo not shown) [Compound H0569, 3-(1-(2,3-dichloro-4-(oxazol-4-yl)phenyl)ethyl)-1-methyl-1-(1-methylpiperidin-4-yl)urea], on GHSR1a [1], the half-inhibitory concentration (IC50) came out at 87 nM. Also, the EC50 at GHSR1a [2] was over 30000 nM. The “Metabolic Stability H” value in series [3] is on record as “Medium H Medium M”. Besides, the “Metabolic Stability M” value in series [4] is on record as “Medium H Medium M”.

Regarding `CN1CCC(N(C)C(=O)NC(c2ccc(-c3cncc(F)n3)c(Cl)c2Cl)C(F)(F)F)CC1` (stereo not shown) [Compound H0908, 3-(1-(2,3-dichloro-4-(6-fluoropyrazin-2-yl)phenyl)-2,2,2-trifluoroethyl)-1-methyl-1-(1-methylpiperidin-4-yl)urea], the IC50 at GHSR1a [1] was 8 nM. The EC50 at GHSR1a [2] is over 30000 nM. Besides, in series [3], the “Metabolic Stability H” value is “Medium”. Also, in series [4], the “Metabolic Stability M” value is reported as “High”.

As to `CC(=O)C#Cc1ccc(C(C)NC(=O)N(C)C2CCN(C)CC2)c(Cl)c1Cl` (stereo not shown) [Compound H0701, 3-(1-(2,3-dichloro-4-(3-oxobut-1-yn-1-yl)phenyl)ethyl)-1-methyl-1-(1-methylpiperidin-4-yl)urea], the IC50 on GHSR1a [1] is 20 nM. Moreover, the EC50 on GHSR1a [2] was over 30000 nM. Also, in series [3], the “Metabolic Stability H” value is listed as “Low H Low M”. In addition, the “Metabolic Stability M” value in series [4] was “Low H Low M”.

Turning to `CC(NC(=O)N(C)C1CCN(C)CC1)c1ccc(-c2cncs2)c2ccccc12` (stereo not shown) [Compound H0597, 1-methyl-1-(1-methylpiperidin-4-yl)-3-(1-(4-(thiazol-5-yl)naphthalen-1-yl)ethyl)urea], the IC50 at GHSR1a [1] was determined as 24 nM. In addition, at GHSR1a [2], the EC50 is over 30000 nM. For the same molecule, the “Metabolic Stability H” value in series [3] is “Poor H Poor M”. In addition, the “Metabolic Stability M” value in series [4] is “Poor H Poor M”.

On to `CC(NC(=O)N(C)C1CCN(C)CC1)c1ccc(-c2ccoc2)c(Cl)c1Cl` (stereo not shown) [Compound H0507, 3-(1-(2,3-dichloro-4-(furan-3-yl)phenyl)ethyl)-1-methyl-1-(1-methylpiperidin-4-yl)urea], for which the half-maximal inhibitory concentration (IC50) at GHSR1a [1] is 8 nM. In addition, the EC50 on GHSR1a [2] amounted to 12 nM. In addition, in series [3], the “Metabolic Stability H” value is “High H High M”. Also, the “Metabolic Stability M” value in series [4] is listed as “High H High M”.
